According to ChEMBL document CHEMBL1128045, “Antifungal lipopeptides: Structure-activity relationships of 3-hydroxyglutamine-modified pneumocandin B0 derivatives” (Bioorg Med Chem Lett, 1995):
≈ marks a conversion by molar mass, not a printed value. Numbered stars: 1 amine (or outer) side, 2 acyl side, 3 side chain; on linkers, the order of the positions; unused ones are H or OH. Bridge positions count the residues as written; N and C are the ends. Square brackets hold non-standard residues; d marks the D form. Peptide text beside a SMILES is read from it. * marks the point of attachment. Orn(4R-OH,5R-OH) = O=C([C@H](C[C@@H](O)[C@@H](O)N[*:3])N[*:1])[*:2]; hTyr(3S-OH,4S-OH) = N[C@H](C(=O)O)[C@H](O)[C@@H](O)c1ccc(O)cc1; X16 = COC(=O)CCCCCNC(=O)C[C@@H](O)[C@H](N[*:1])C(=O)[*:2]; X8 = O=C(O)CCCCCNC(=O)C[C@@H](O)[C@H](N[*:1])C(=O)[*:2]; Orn(4R-OH) = O=C([C@H](C[C@@H](O)CN[*:3])N[*:1])[*:2]; X15 = NCCCCCCNC(=O)C[C@@H](O)[C@H](N[*:1])C(=O)[*:2]; hTyr(3R-OH) = N[C@H](C(=O)O)[C@H](O)Cc1ccc(O)cc1; X14 = NNC(=O)C[C@@H](O)[C@H](N[*:1])C(=O)[*:2]; X17 = O=C([C@@H](N[*:1])[C@H](O)CCO)[*:2]; X9 = N#CC[C@@H](O)[C@H](N[*:1])C(=O)[*:2]; Orn(3R-OH) = NCC[C@@H](O)[C@H](N)C(=O)O; Pro(3S-OH) = O=C(O)[C@H]1NCC[C@@H]1O; Hyp = O=C(O)[C@@H]1C[C@@H](O)CN1; X1 = CCC(C)CC(C)CCCCCCCCC(=O)*

Assays:
Beta-1,3-glucan synthase = Beta-1,3-glucan synthase (Candida albicans, UniProt O13428); assay: Tested for inhibition of Beta-1,3-glucan synthase using a crude membrane of Candida albicans (MY 1208).
Sequence of Beta-1,3-glucan synthase (O13428 whole entry): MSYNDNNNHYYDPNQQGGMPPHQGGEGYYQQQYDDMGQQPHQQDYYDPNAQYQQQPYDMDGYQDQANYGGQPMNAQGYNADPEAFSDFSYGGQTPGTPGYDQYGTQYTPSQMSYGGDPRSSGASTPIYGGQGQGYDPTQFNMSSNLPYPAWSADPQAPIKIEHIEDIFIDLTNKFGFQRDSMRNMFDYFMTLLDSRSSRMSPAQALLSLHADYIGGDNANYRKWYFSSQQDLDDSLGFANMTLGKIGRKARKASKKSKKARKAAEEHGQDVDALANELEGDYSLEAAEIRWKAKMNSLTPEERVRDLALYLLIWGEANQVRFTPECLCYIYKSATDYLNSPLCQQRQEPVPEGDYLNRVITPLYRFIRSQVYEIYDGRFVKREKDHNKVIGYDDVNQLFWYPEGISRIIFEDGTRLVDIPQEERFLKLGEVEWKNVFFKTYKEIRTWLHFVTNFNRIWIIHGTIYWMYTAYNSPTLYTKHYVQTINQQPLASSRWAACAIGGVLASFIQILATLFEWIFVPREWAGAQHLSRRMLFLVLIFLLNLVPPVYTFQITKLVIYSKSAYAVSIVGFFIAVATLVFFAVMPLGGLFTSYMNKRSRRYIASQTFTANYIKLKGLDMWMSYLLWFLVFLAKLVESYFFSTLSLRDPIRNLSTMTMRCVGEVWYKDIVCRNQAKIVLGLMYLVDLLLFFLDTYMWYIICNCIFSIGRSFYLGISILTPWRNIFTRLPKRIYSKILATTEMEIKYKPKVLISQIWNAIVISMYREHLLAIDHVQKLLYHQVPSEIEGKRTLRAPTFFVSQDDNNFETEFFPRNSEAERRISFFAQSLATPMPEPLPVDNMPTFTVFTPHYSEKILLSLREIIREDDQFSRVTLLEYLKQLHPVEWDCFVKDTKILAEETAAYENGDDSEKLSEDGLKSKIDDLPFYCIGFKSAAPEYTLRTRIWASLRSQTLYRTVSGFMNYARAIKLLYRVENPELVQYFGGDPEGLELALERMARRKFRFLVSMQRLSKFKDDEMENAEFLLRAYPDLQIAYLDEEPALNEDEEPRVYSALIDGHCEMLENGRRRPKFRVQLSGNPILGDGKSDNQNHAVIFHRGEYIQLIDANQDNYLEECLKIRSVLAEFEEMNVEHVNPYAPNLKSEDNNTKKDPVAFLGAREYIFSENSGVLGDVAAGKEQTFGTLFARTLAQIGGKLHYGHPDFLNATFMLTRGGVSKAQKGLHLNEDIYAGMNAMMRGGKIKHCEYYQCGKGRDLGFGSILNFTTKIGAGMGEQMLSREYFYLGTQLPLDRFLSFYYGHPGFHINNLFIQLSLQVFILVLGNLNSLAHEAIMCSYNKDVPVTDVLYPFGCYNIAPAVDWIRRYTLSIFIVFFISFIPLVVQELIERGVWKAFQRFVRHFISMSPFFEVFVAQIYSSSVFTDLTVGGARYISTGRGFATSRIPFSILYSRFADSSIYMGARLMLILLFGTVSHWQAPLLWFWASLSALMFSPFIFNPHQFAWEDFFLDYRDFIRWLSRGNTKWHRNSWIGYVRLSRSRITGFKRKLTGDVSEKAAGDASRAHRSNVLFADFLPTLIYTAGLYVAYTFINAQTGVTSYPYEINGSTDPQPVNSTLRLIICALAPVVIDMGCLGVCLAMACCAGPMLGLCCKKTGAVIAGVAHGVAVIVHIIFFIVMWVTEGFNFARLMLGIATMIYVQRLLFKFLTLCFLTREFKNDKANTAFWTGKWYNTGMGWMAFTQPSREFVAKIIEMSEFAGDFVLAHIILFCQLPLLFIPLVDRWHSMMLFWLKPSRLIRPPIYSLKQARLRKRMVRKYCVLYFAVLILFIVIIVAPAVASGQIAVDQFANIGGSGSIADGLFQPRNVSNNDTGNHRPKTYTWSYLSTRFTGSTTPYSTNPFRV

Candida albicans = assay: In vitro Fungicidal activity (MFC) against Candida albicans (MY 1055).; format: functional
[1] = In vivo anti-Candida activity was determined in a mouse model of disseminated candidiasis (TOKA).; format: functional
Candida parapsilosis = assay: In vitro Fungicidal activity (MFC) against Candida parapsilosis (MY 1010).; format: functional; conditions: Lodderomyces parapsilosis

Compound	IC50 (Beta-1,3-glucan synthase) [nM]	MFC (Candida albicans) [µg/mL]	ED99.9 [1] [mg/kg]	MFC (Candida parapsilosis) [µg/mL]
CCC(C)CC(C)CCCCCCCCC(=O)N[C@H]1C[C@@H](O)CNC(=O)[C@@H]2[C@@H](O)CCN2C(=O)[C@H]([C@H](O)CCN)NC(=O)[C@H]([C@H](O)Cc2ccc(O)cc2)NC(=O)[C@@H]2C[C@@H](O)CN2C(=O)[C@H]([C@@H](C)O)NC1=O (stereo partly drawn) (X1-[Orn(4R-OH)]T[Hyp][hTyr(3R-OH)][Orn(3R-OH)][Pro(3S-OH)]; lactam 1-C)	10	0.125 (≈ 0.123 µM)	1.5	–
CCC(C)CC(C)CCCCCCCCC(=O)N[C@H]1C[C@@H](O)CNC(=O)[C@@H]2[C@@H](O)CCN2C(=O)[C@H]([C@H](O)CC(=O)NCCCCCC(=O)O)NC(=O)[C@H]([C@H](O)Cc2ccc(O)cc2)NC(=O)[C@@H]2C[C@@H](O)CN2C(=O)[C@H]([C@@H](C)O)NC1=O (stereo partly drawn) (X1-[Orn(4R-OH)]T[Hyp][hTyr(3R-OH)][X8][Pro(3S-OH)]; lactam 1-C)	900	2 (≈ 1.74 µM)	–	64 (≈ 55.8 µM)
CCC(C)CC(C)CCCCCCCCC(=O)N[C@H]1C[C@@H](O)CNC(=O)[C@@H]2[C@@H](O)CCN2C(=O)[C@H]([C@H](O)CC#N)NC(=O)[C@H]([C@H](O)Cc2ccc(O)cc2)NC(=O)[C@@H]2C[C@@H](O)CN2C(=O)[C@H]([C@@H](C)O)NC1=O (stereo partly drawn) (X1-[Orn(4R-OH)]T[Hyp][hTyr(3R-OH)][X9][Pro(3S-OH)]; lactam 1-C)	100	1 (≈ 0.985 µM)	–	4 (≈ 3.94 µM)
CCC(C)CC(C)CCCCCCCCC(=O)N[C@H]1C[C@@H](O)CNC(=O)[C@@H]2[C@@H](O)CCN2C(=O)[C@H]([C@H](O)CC(=O)NN)NC(=O)[C@H]([C@H](O)Cc2ccc(O)cc2)NC(=O)[C@@H]2C[C@@H](O)CN2C(=O)[C@H]([C@@H](C)O)NC1=O (stereo partly drawn) (X1-[Orn(4R-OH)]T[Hyp][hTyr(3R-OH)][X14][Pro(3S-OH)]; lactam 1-C)	110	4 (≈ 3.82 µM)	–	8 (≈ 7.63 µM)
CCC(C)CC(C)CCCCCCCCC(=O)N[C@H]1C[C@@H](O)CNC(=O)[C@@H]2[C@@H](O)CCN2C(=O)[C@H]([C@H](O)CC(=O)NCCCCCCN)NC(=O)[C@H]([C@H](O)Cc2ccc(O)cc2)NC(=O)[C@@H]2C[C@@H](O)CN2C(=O)[C@H]([C@@H](C)O)NC1=O (stereo partly drawn) (X1-[Orn(4R-OH)]T[Hyp][hTyr(3R-OH)][X15][Pro(3S-OH)]; lactam 1-C)	38	0.5 (≈ 0.442 µM)	>6	–
CCC(C)CC(C)CCCCCCCCC(=O)N[C@H]1C[C@@H](O)CNC(=O)[C@@H]2[C@@H](O)CCN2C(=O)[C@H]([C@H](O)CC(=O)NCCCCCC(=O)OC)NC(=O)[C@H]([C@H](O)Cc2ccc(O)cc2)NC(=O)[C@@H]2C[C@@H](O)CN2C(=O)[C@H]([C@@H](C)O)NC1=O (stereo partly drawn) (X1-[Orn(4R-OH)]T[Hyp][hTyr(3R-OH)][X16][Pro(3S-OH)]; lactam 1-C)	250	4 (≈ 3.44 µM)	–	> 128
CCC(C)CC(C)CCCCCCCCC(=O)N[C@H]1C[C@@H](O)CNC(=O)[C@@H]2[C@@H](O)CCN2C(=O)[C@H]([C@H](O)CCO)NC(=O)[C@H]([C@H](O)Cc2ccc(O)cc2)NC(=O)[C@@H]2C[C@@H](O)CN2C(=O)[C@H]([C@@H](C)O)NC1=O (stereo partly drawn) (X1-[Orn(4R-OH)]T[Hyp][hTyr(3R-OH)][X17][Pro(3S-OH)]; lactam 1-C)	200	1 (≈ 0.98 µM)	–	8 (≈ 7.84 µM)
CCC(C)CC(C)CCCCCCCCC(=O)N[C@H]1C[C@@H](O)[C@@H](O)NC(=O)[C@@H]2[C@@H](O)CCN2C(=O)[C@H]([C@H](O)CC#N)NC(=O)[C@H]([C@H](O)[C@@H](O)c2ccc(O)cc2)NC(=O)[C@@H]2C[C@@H](O)CN2C(=O)[C@H]([C@@H](C)O)NC1=O (stereo partly drawn) (X1-[Orn(4R-OH,5R-OH)]T[Hyp][hTyr(3S-OH,4S-OH)][X9][Pro(3S-OH)]; lactam 1-C)	100	2 (≈ 1.91 µM)	–	2 (≈ 1.91 µM)
